Results taken from ChEMBL document CHEMBL5724914, “Linking interpersonal differences in gut microbiota composition and drug biotransformation activity” (2024).

What was measured:
[1] = human gut metagenome, 24 h, 2 µM
[2] = (§1) The drug is tested on Z-030 corresponding to mouse gut metagenome with ENA study accession number: PRJEB37062 and ENA sample accession number: ERS12561829 for biotransformation under anaerobic condition. The drug concentrations were measured over 9 timepoints collected between 0 and 24 hours of incubation by liquid-chromatography-coupled mass spectrometry (LC–MS); settings: 2 µM
[3] = human gut metagenome, 24 h, 2 µM; remark: listed apart in the source
[4] = as §1, with “Z-012” for “Z-030”, “to” for “to mouse gut”, “ERS12561812” for “ERS12561829”; settings: 2 µM
[5] = as §1, with “Z-029” for “Z-030”, “rat” for “mouse”, “ERS12561828” for “ERS12561829”; settings: 2 µM
[6] = as §1, with “Z-024” for “Z-030”, “pig” for “mouse”, “ERS12561823” for “ERS12561829”; settings: 2 µM
[7] = human gut metagenome, 24 h, 2 µM; remark: listed apart in the source
[8] = as §1, with “WLS-082” for “Z-030”, “human” for “mouse”, “ERS12561751” for “ERS12561829”; settings: 2 µM
[9] = as §1, with “Z-005” for “Z-030”, “to” for “to mouse gut”, “ERS12561805” for “ERS12561829”; settings: 2 µM
[10] = human gut metagenome, 24 h, 2 µM; remark: listed apart in the source
[11] = as §1, with “WLS-077” for “Z-030”, “human” for “mouse”, “ERS12561750” for “ERS12561829”; settings: 2 µM
[12] = human gut metagenome, 24 h, 2 µM; remark: listed apart in the source
[13] = human gut metagenome, 24 h, 2 µM; remark: listed apart in the source
[14] = human gut metagenome, 24 h, 2 µM; remark: listed apart in the source
[15] = as §1, with “Z-007” for “Z-030”, “rat” for “mouse”, “ERS12561807” for “ERS12561829”; settings: 2 µM
[16] = human gut metagenome, 24 h, 2 µM; remark: listed apart in the source
[17] = as §1, with “Z-001” for “Z-030”, “ERS12561801” for “ERS12561829”; settings: 2 µM
[18] = as §1, with “WLS-090” for “Z-030”, “human” for “mouse”, “ERS12561753” for “ERS12561829”; settings: 2 µM
[19] = human gut metagenome, 24 h, 2 µM; remark: listed apart in the source
[20] = human gut metagenome, 24 h, 2 µM; remark: listed apart in the source
Note: call rule not given here.

SMILES | Bacterial Biotransformation [1] | Bacterial Biotransformation [2] | Bacterial Biotransformation [3] | Bacterial Biotransformation [4] | Bacterial Biotransformation [5] | Bacterial Biotransformation [6] | Bacterial Biotransformation [7] | Bacterial Biotransformation [8] | Bacterial Biotransformation [9] | Bacterial Biotransformation [10] | Bacterial Biotransformation [11] | Bacterial Biotransformation [12] | Bacterial Biotransformation [13] | Bacterial Biotransformation [14] | Bacterial Biotransformation [15] | Bacterial Biotransformation [16] | Bacterial Biotransformation [17] | Bacterial Biotransformation [18] | Bacterial Biotransformation [19] | Bacterial Biotransformation [20]
CNC(=C[N+](=O)[O-])NCCSCc1ccc(CN(C)C)o1 [RANITIDINE] | Compound metabolized | Compound NOT metabolized | Compound NOT metabolized | Compound metabolized | Compound metabolized | Compound NOT metabolized | Compound NOT metabolized | Compound metabolized | Compound NOT metabolized | Compound metabolized | Compound NOT metabolized | Compound NOT metabolized | Compound NOT metabolized | Compound metabolized | Compound NOT metabolized | Compound metabolized | Compound metabolized | Compound NOT metabolized | Compound NOT metabolized | Compound NOT metabolized
O=C(Nc1ccccc1)OCC(CN1CCCCC1)OC(=O)Nc1ccccc1 (stereo not given) [DIPERODON] | Compound NOT metabolized | Compound NOT metabolized | Compound metabolized | Compound NOT metabolized | Compound NOT metabolized | Compound metabolized | Compound NOT metabolized | Compound metabolized | Compound NOT metabolized | Compound NOT metabolized | Compound NOT metabolized | Compound NOT metabolized | Compound metabolized | Compound NOT metabolized | Compound NOT metabolized | Compound metabolized | Compound NOT metabolized | Compound metabolized | Compound NOT metabolized | Compound NOT metabolized
NC12CC3CC(CC(C3)C1)C2 [AMANTADINE] | Compound NOT metabolized | Compound NOT metabolized | Compound NOT metabolized | Compound NOT metabolized | Compound NOT metabolized | Compound NOT metabolized | Compound NOT metabolized | Compound NOT metabolized | Compound NOT metabolized | Compound NOT metabolized | Compound NOT metabolized | Compound NOT metabolized | Compound NOT metabolized | Compound NOT metabolized | Compound NOT metabolized | Compound NOT metabolized | Compound NOT metabolized | Compound NOT metabolized | Compound NOT metabolized | Compound NOT metabolized
COC1=CC(=O)C[C@@H](C)[C@]12Oc1c(Cl)c(OC)cc(OC)c1C2=O [GRISEOFULVIN] | Compound NOT metabolized | Compound NOT metabolized | Compound metabolized | Compound metabolized | Compound NOT metabolized | Compound metabolized | Compound metabolized | Compound metabolized | Compound metabolized | Compound metabolized | Compound metabolized | Compound NOT metabolized | Compound metabolized | Compound NOT metabolized | Compound metabolized | Compound metabolized | Compound metabolized | Compound NOT metabolized | Compound metabolized | Compound metabolized
